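How tested: cells in 96-well plates exposed to compound for 48 hours at five concentrations. Here, GI50 denotes the concentration required for 50% inhibition of growth.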 Active and inactive are the calls of the source. Cut-off read from the data, not from the text of the source: active = GI50 up to about 1.1 µM and inactive = higher.
Tests used:
Assay in all cases: NCI-60 cell line screen, 48 h
[1] = system: 786-0
[2] = system: A498
[3] = system: A549
[4] = system: ACHN
[5] = system: CAKI-1
[6] = system: CCRF-CEM
[7] = system: COLO 205
[8] = system: DLD-1
[9] = system: DMS-273
[10] = system: DU-145
[11] = system: EKVX
[12] = system: HCC 2998
[13] = system: HCT-116
[14] = system: HCT-15
[15] = system: HL-60
[16] = system: HOP-18
[17] = system: HOP-62
[18] = system: HOP-92
[19] = system: HT-29
[20] = system: Hs-578T
[21] = system: IGROV-1
[22] = system: K562
[23] = system: KM-20L2
[24] = system: KM12
[25] = system: LOX IMVI
[26] = system: LXFL 529
[27] = system: M14
[28] = system: M19-MEL
[29] = system: MDA-MB-231
[30] = system: MDA-MB-435
[31] = system: MDA-N
[32] = system: MOLT-4
[33] = system: Malme-3M
[34] = system: NCI-H226
[35] = system: NCI-H23
[36] = system: NCI-H460
[37] = system: NCI-H522
[38] = system: NCI/ADR-RES
[39] = system: OVCAR-3
[40] = system: OVCAR-5
[41] = system: OVCAR-8
[42] = system: PC-3
[43] = system: RPMI-8226
[44] = system: RXF 393
[45] = system: RXF 631
[46] = system: SF-268
[47] = system: SF-295
[48] = system: SF-539
[49] = system: SK-MEL-28
[50] = system: SK-MEL-2
[51] = system: SK-OV-3
[52] = system: SN12C
[53] = system: SNB-19
[54] = system: SNB-75
[55] = system: SNB-78
[56] = system: SR
[57] = system: SW-620
[58] = system: TK-10
[59] = system: U-251
[60] = system: UACC-257
[61] = system: UO-31
[62] = system: XF498

Measured: GI50

C=C1C(=O)C23C(O)CC4C(C)(C)CCC(O)C4(C)C2CC(OC(C)=O)C1[C@H]3O (some centres not stated)
2.06 µM: [14]
inactive: [1] 2.4 µM | [2] 15.8 µM | [3] 4.06 µM | [4] 4.12 µM | [5] 2.37 µM | [7] 1.98 µM | [8] 1.69 µM | [9] 1.65 µM | [10] > 10 µM | [11] 4.88 µM | [12] 4.06 µM | [13] 2 µM | [15] 1.26 µM | [16] 2.27 µM | [17] 14.7 µM | [18] 2.26 µM | [20] 24 µM | [21] 4.79 µM | [22] 1.84 µM | [23] 3.15 µM | [24] 15.8 µM | [27] 2.82 µM | [28] 1.61 µM | [29] 3.27 µM | [30] 7.96 µM | [31] 7.87 µM | [32] 1.28 µM | [33] 3.37 µM | [34] 9.31 µM | [35] 2.44 µM | [36] 4.25 µM | [38] 15.3 µM | [39] 6.18 µM | [40] 9.75 µM | [41] 1.22 µM | [42] 11.4 µM | [44] 2.62 µM | [45] 4.8 µM | [46] 4.49 µM | [47] 8.05 µM | [48] 3.5 µM | [49] 3.39 µM | [50] 2.55 µM | [51] 17.3 µM | [52] 3.15 µM | [53] 8.99 µM | [54] 8.61 µM | [56] 1.18 µM | [58] 2.22 µM | [59] 8.81 µM | [60] 3.28 µM | [61] 15.3 µM | [62] 1.91 µM
active: [6] 0.442 µM | [19] 0.351 µM | [25] 0.188 µM | [26] 1.07 µM | [37] 0.123 µM | [43] 0.869 µM | [55] 0.925 µM | [57] 1.01 µM
